The target in test [1] is T1, human recombinant ALDH1a1 (Homo sapiens, UniProt P00352).
T1 sequence (P00352 1-501): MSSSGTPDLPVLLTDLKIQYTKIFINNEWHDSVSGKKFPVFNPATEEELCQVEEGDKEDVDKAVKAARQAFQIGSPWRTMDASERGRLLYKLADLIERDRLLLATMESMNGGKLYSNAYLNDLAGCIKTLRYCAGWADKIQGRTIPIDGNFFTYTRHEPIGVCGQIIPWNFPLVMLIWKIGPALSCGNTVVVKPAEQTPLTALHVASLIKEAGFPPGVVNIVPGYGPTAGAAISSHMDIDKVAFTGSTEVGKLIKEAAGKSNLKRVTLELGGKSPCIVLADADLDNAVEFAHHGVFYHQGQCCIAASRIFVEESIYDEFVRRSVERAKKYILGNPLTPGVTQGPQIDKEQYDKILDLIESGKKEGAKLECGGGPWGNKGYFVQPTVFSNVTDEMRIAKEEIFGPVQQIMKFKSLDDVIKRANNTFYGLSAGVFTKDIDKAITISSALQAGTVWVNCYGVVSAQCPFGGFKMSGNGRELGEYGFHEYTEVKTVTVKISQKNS
Briefly: ALDH enzyme inhibition assay (ALDH1a1), diaphorase/resorufin fluorescence. It is filed as biochemical. Conditions: for IC50: read-out: IC50 (µM) ± SE (ALDH1a1); for fold reduction of ALDH1a1 inhibitory activity: relative to compound (2). As to the method: (§1) The inhibitory activity of the thiuram disulfide (4) was evaluated in vitro against human recombinant ALDH1a1 and ALDH2, as shown in Figure 3 and Table 1.
(§2) All tested compounds were prepared as 100 mM stock solutions in DMSO. […] Five µL of desalted enzyme […] Five µL of reaction buffer were also added to the “no enzyme” background control wells. The test compounds were added to the assay wells. The reaction plate was then centrifuged briefly at 1200 rpm, then incubated for 20 min at RT. […] The reaction plate was briefly centrifuged and incubated at RT for 60 min. Ten µL of detection reagent composed of 15 µg/mL diaphorase and […] were added. The reaction plate was briefly centrifuged and incubated for a further 10 min at RT in the dark.

Test [2] deals with T2, human recombinant ALDH2 (Homo sapiens, UniProt P05091).
T2 sequence (P05091 18-517): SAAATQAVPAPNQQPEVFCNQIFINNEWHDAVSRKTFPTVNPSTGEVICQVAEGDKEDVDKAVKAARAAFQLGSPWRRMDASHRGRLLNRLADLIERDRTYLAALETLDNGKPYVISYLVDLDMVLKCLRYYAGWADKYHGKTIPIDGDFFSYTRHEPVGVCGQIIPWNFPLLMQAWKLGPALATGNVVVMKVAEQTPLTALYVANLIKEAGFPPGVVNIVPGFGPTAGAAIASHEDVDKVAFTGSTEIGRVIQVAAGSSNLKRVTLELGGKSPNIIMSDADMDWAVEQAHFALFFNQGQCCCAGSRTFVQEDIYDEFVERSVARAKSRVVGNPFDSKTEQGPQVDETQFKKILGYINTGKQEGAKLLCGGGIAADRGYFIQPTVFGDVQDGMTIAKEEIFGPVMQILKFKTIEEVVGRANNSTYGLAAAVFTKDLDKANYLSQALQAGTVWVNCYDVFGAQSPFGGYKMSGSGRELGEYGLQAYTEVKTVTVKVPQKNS
Briefly: ALDH enzyme inhibition assay (ALDH2), diaphorase/resorufin fluorescence. It is filed as biochemical. Conditions: average of at least two experiments ± standard error; 100 µM acetaldehyde, 500 µM NAD+; 20 min preincubation; NI = no inhibition up to 0.5 mM; read-out: IC50 (µM) ± SE (ALDH2). The method, then:
as §1, §2

The target of test [3] is T2, human recombinant ALDH2. Conditions: previously reported; cited from earlier work.
Setting [4] is: average of at least two experiments ± standard error, 250 µM acetaldehyde, 500 µM NAD+, 20 min preincubation, NI = no inhibition up to 0.5 mM.

Some results are limits rather than exact numbers.

By IC50 is commonly meant the point on the concentration scale where inhibition reaches its midpoint. As to `CCN(Cc1ccsc1)C(=S)SSC(=S)N(CC)Cc1ccsc1` [Compound 4i, bis(N-(3-thienylmethyl)ethylthiocarbamoyl)disulphide], the values for the IC50 (in test [1] (setting [4]); on human recombinant ALDH2 [2]) were 0.17 ± 0.1 µM and more than 500 µM, respectively.

For the molecule `CCN(Cc1ccc(Cl)cc1)C(=S)SSC(=S)N(CC)Cc1ccc(Cl)cc1` [Compound 4c, bis(N-4-Chlorobenzylethylthiocarbamoyl)disulphide], the figures for the half-inhibitory concentration (IC50) (in test [1] (setting [4]); at human recombinant ALDH2 [2]) were 0.86 ± 0.68 µM and more than 500 µM, respectively. Also, the “fold reduction of ALDH1a1 inhibitory activity” value in test [1] is reported as “five”.

Turning to `CCN(Cc1ccc(C(F)(F)F)cc1)C(=S)SSC(=S)N(CC)Cc1ccc(C(F)(F)F)cc1` [Compound 4d, bis(N-4-trifluoromethylbenzylethylthiocarbamoyl)disulphide], in test [1] (setting [4]), the “IC50 (µM) ± SE (ALDH1a1)” value was “completely inactive” and the IC50 was more than 500 µM. In addition, on human recombinant ALDH2 [2], the IC50 was more than 500 µM.

On to `CCN(Cc1ccc(F)cc1)C(=S)SSC(=S)N(CC)Cc1ccc(F)cc1` [Compound 2], for which the IC50 in test [1] (setting [4]) was 0.17 ± 0.06 µM; at human recombinant ALDH2 [2] it was more than 500 µM. The “IC50 against ALDH2” value on human recombinant ALDH2 [3] is given as “no inhibition”.

Regarding `CCN(Cc1ccccc1F)C(=S)SSC(=S)N(CC)Cc1ccccc1F` [Compound 4b, bis(N-2-Fluorobenzylethylthiocarbamoyl)disulphide], the IC50 in test [1] (setting [4]) is 0.59 ± 0.46 µM; on human recombinant ALDH2 [2] it was more than 500 µM. The “fold reduction of ALDH1a1 inhibitory activity” value in test [1] came out at 3.5 fold.

Take `CCN(Cc1cccs1)C(=S)SSC(=S)N(CC)Cc1cccs1` [Compound 4h, bis(N-(2-thienylmethyl)ethylthiocarbamoyl)disulphide]: the figures for the IC50 (in test [1] (setting [4]); at human recombinant ALDH2 [2]) were 0.39 ± 0.31 µM and more than 500 µM, respectively.

For the molecule `CCN(Cc1ccncc1)C(=S)SSC(=S)N(CC)Cc1ccncc1` [Compound 4f, bis(N-(4-pyridylmethyl)ethylthiocarbamoyl)disulphide], the IC50 in test [1] (setting [4]) is 5.76 ± 4.01 µM; at human recombinant ALDH2 [2], more than 500 µM. Further, in test [1], the “fold reduction of ALDH1a1 inhibitory activity” value is reported as “more than 33 fold”.

For the molecule `CCN(Cc1cccc(F)c1)C(=S)SSC(=S)N(CC)Cc1cccc(F)c1` [Compound 4a, bis(N-3-Fluorobenzylethylthiocarbamoyl)disulphide], the half-inhibitory concentration (IC50) in test [1] (setting [4]) was 0.31 ± 0.14 µM; on human recombinant ALDH2 [2], more than 500 µM. In addition, the “fold reduction of ALDH1a1 inhibitory activity” value in test [1] is recorded as 2 fold.

For `CCN(Cc1ccco1)C(=S)SSC(=S)N(CC)Cc1ccco1` [Compound 4g, bis(N-(2-furylmethyl)ethylthiocarbamoyl)disulphide], the 50% inhibitory concentration (IC50) in test [1] (setting [4]) worked out at 0.39 ± 0.27 µM; at human recombinant ALDH2 [2], 200 µM.

In the case of `CCN(Cc1ccc(OC)cc1)C(=S)SSC(=S)N(CC)Cc1ccc(OC)cc1` [Compound 4e], the half-maximal inhibitory concentration (IC50) in test [1] (setting [4]) is 0.58 ± 0.41 µM; at human recombinant ALDH2 [2], more than 500 µM.
